Measurements taken from publication PMC11325084, “Pharmacokinetics and tissue distribution of LN002, a new compound alternative oxidase inhibitor against Cryptosporidium in rats” (Frontiers in Pharmacology, 2024).

Legend:
[1] = Tissue distribution of LN002 after oral administration in rats; type: in vivo, Sprague–Dawley (SD) rats; settings: oral 200 mg/kg; for Cmax / Tmax / half-life: both sexes, Sprague-Dawley, rat; for Cmax / Tmax / half-life / AUC0-24 h: SD rats
Description: Thirty SD rats (15 for each sex) were randomly and equally assigned to 5 groups (half male and half female). The rats in each group were euthanized with pentobarbital sodium (a dose of 180 mg/kg) at five different time points: 0.5, 2, 6, 12 and 24 h after oral administration at 200 mg/kg LN002. Subsequently, various tissues, including the heart, liver, spleen, lungs, kidneys, brain, muscles, small intestine, and intestinal contents, were promptly collected ([Verma et al., 2022]). The dissected tissues were rinsed with normal saline, dried with an absorbent paper, homogenized using a tissue homogenizer, and stored at a temperature of −20°C until further analysis.
Tissue samples and intestinal contents were accurately weighed to 0.5 ± 0.02 g in a 10 mL EP tube and added with 2 mL of extraction solvent (acetonitrile: methanol [2:1, v/v]). The extraction solvent was vortexed for 1 min and centrifuged at 6,000 rpm and 4°C for 10 min. The supernatant was transferred to a new test tube and vortexed after adding 2 mL of water. The sample was purified using solid-phase extraction (SPE) using methanol as the extraction solvent. The Poly-Sery MAX SPE Cartridge (Shanghai Anpu Experimental Technology Co., Ltd., Shanghai, China) was added with 3 mL of methanol to activate, 3 mL of water to rinse, and the abovementioned extraction solvent. Afterward, 2 mL of 10% methanol water was poured into extraction columns to elute impurities. Finally, 1.5 mL of methanol was added to elute the compound and collect the eluent. Twenty microliters of the eluent was passed through a 0.22 μm filter membrane and then injected into the HPLC system for analysis.
A Shimadzu LC-20A system (Shimadzu Technologies, Kyoto, Japan) equipped with a LabSolutions system (version 5.1) system was used for HPLC analysis. The separation process utilized an ARD-C18 column (250 mm × 4.6 mm, 5 µm) (Zhongpu Technology Co., Ltd., Fuzhou, China). The analytes were detected using a UV detector at 333 nm. The chromatographic conditions used an isocratic mobile phase that combines methanol (solvent A) and deionized water (solvent B) (75:25, v/v), and they were propelled through the column at a constant flow rate of 1 mL/min, ensuring uniform separation. The injection volume was 20 μL. The temperature of the column was set to 40°C.
Pharmacokinetic data were obtained via non-compartmental PK analysis of total concentration versus time profiles for plasma using Phoenix WinNonlin 8.2 (Certara, L.P., Princeton, NJ, United States). Statistical analysis and graphing were undertaken using GraphPad Prism 9.5 for Windows (GraphPad Software, Inc., La Jolla, CA, United States).

[2] = Stability of LN002 stock solution; type: physicochemical; settings: for Stock solution stability, measured concentration: nominal concentration 1,000 ng/mL, n = 6, mean ± SD
Description: LN002 was dissolved in N,N-dimethylformamide, then mixed to make a concentration of 1 mg/mL standard solution, and stored at −20°C. By investigating the low, middle, and high-concentration stability of rat plasma, the liver and intestinal contents in six replicates at different storage conditions, autosampler, short-term, freeze and thaw, long-term stability, and stock solution stability evaluations were conducted.

[3] = intestinal contents, n = 6, mean ± SD

## N#C/C(=C\c1c[nH]nc1-c1ccccc1)c1nn(-c2ccccc2)c(N)c1C#N [LN002, 5-amino-3-[1-cyano-2-(3-phenyl-4-vinopyrazole))-1-phenyl-4-vinopyrazole]
[1]; brain, n = 6, mean ± SD
  Cmax: 456 ± 80.9 ng/g
  Tmax: 0.58 ± 0.19 h
  half-life: 5.2 ± 2.31 h
  AUC0-24 h: 1328.60 ± 176.19 h⋅ng/g
[1]; heart, n = 6, mean ± SD
  Cmax: 972 ± 165 ng/g
  Tmax: 0.57 ± 0.11 h
  half-life: 6.82 ± 1.65 h
  AUC0-24 h: 3855.84 ± 323.04 h⋅ng/g
[1]; [3]
  Cmax: 4.45e+06 ng/g
  Tmax: 3.33 ± 1.6 h
  half-life: 1.64 ± 0.01 h
  AUC0-24 h: 35080673.50 ± 644,065.57 h⋅ng/g
[1]; intestine, n = 6, mean ± SD
  Cmax: 607000 ng/g
  Tmax: 2.67 ± 1.49 h
  half-life: 5.48 ± 1.48 h
  AUC0-24 h: 2185750.70 ± 149,399.23 h⋅ng/g
[1]; kidney, n = 6
  Tmax: 0.5 h
[1]; kidney, n = 6, mean ± SD
  Cmax: 561 ± 135 ng/g
  half-life: 5.03 ± 1.52 h
  AUC0-24 h: 1781.24 ± 453.85 h⋅ng/g
[1]; liver, n = 6, mean ± SD
  Cmax: 478 ± 157 ng/g
  Tmax: 0.67 ± 0.19 h
  half-life: 5.54 ± 0.66 h
  AUC0-24 h: 4051.62 ± 586.44 h⋅ng/g
[1]; lung, n = 6, mean ± SD
  Cmax: 8700 ± 1410 ng/g
  Tmax: 2.09 ± 0.43 h
  half-life: 5.43 ± 1.6 h
  AUC0-24 h: 84,344.09 ± 9677.76 h⋅ng/g
[1]; muscle, n = 6, mean ± SD
  Cmax: 3980 ± 589 ng/g
  Tmax: 0.58 ± 0.19 h
  half-life: 6.3 ± 2.71 h
  AUC0-24 h: 12,634.31 ± 2366.24 h⋅ng/g
[1]; spleen, n = 6
  Tmax: 0.5 h
[1]; spleen, n = 6, mean ± SD
  Cmax: 645 ± 187 ng/g
  half-life: 5.8 ± 1.93 h
  AUC0-24 h: 2280.55 ± 418.06 h⋅ng/g
[1]; rats
  Rank order of concentration in tissues and intestinal contents: intestinal contents, followed by the small intestine, lung, muscle, heart, liver, spleen, kidney, and brain
[1]; rats, 24 h
  Detection in tissues at the last time point (in words): detected at 24 h in all tissues and intestinal contents
[2]; 15 d
  Stock solution stability, measured concentration: 0.941 ± 0.091
[2]; 30 d
  Stock solution stability, measured concentration: 0.924 ± 0.051
[2]; stock solution, 15 d and 30 d
  Degradation of stock solution (in words): no appreciable degradation
